Reference: PubChem BioAssay AID248 (DTP/NCI, 2004)
Where “and” joins values, the source holds several entries; their conditions need not be identical. Equal entries are not always repeated. Inconclusive results and toxic doses are left out. Cut-off read from the data, not from the text of the source: active = T/C of 150% or more; inactive = T/C below 125%.

Test system: L1210 leukemia ip in BDF1 mice, survival T/C
Test: NCI In Vivo Anticancer Drug Screen. Data for tumor model L1210 Leukemia (intraperitoneal) in B6D2F1 (BDF1) mice
Settings: endpoint: mean survival time, higher = longer survival
Procedure, shortened: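 Ratio derived from survival: compound-dosed mice over vehicle-dosed mice, all bearing a transplantable tumor.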

[1] = dose: 100.0 mg/kg/injection, schedule: Q01DX001 (ip), vehicle: other
[2] = dose: 200.0 mg/kg/injection, schedule: Q01DX001 (ip), vehicle: other
[3] = dose: 400.0 mg/kg/injection, schedule: Q01DX001 (ip), vehicle: other
[4] = dose: 100.0 mg/kg/injection, schedule: Q01DX001 (ip), vehicle: saline with Tween-80
[5] = dose: 200.0 mg/kg/injection, schedule: Q01DX001 (ip), vehicle: saline with Tween-80
[6] = dose: 100.0 mg/kg/injection, schedule: Q01DX001 (ip), vehicle: saline
[7] = dose: 200.0 mg/kg/injection, schedule: Q01DX001 (ip), vehicle: saline
[8] = dose: 400.0 mg/kg/injection, schedule: Q01DX001 (ip), vehicle: saline
[9] = dose: 100.0 mg/kg/injection, schedule: Q04DX002 (ip), vehicle: saline
[10] = dose: 200.0 mg/kg/injection, schedule: Q04DX002 (ip), vehicle: saline

Measured: T/C

CCCCCCCCCCCCOC(=O)C(Cl)(Cl)Cl
inactive: [1] 93 % of control | dose: 100.0 mg/kg/injection, schedule: Q04DX003 (ip), vehicle: other 102 % of control | [2] 96 % of control | dose: 200.0 mg/kg/injection, schedule: Q04DX003 (ip), vehicle: other 96 % of control | [3] 93 % of control | dose: 400.0 mg/kg/injection, schedule: Q04DX003 (ip), vehicle: other 97 % of control

Cn1c(CCN=C(N)CSS(=O)(=O)O)nc2ccccc21
inactive: dose: 50.0 mg/kg/injection, schedule: Q04DX002 (ip), vehicle: Klucel (hydroxypropylcellulose) (HPC) 91 % of control | dose: 100.0 mg/kg/injection, schedule: Q04DX002 (ip), vehicle: Klucel (hydroxypropylcellulose) (HPC) 105 % of control | dose: 200.0 mg/kg/injection, schedule: Q04DX002 (ip), vehicle: Klucel (hydroxypropylcellulose) (HPC) 105 % of control and 112 % of control

c1ccc(-c2c(-c3ccc4c(c3)OCO4)c(-c3ccc4c(c3)OCO4)c(-c3ccccc3)c3ccccc23)cc1
inactive: [4] 92 % of control | [5] 100 % of control

O=[N+]([O-])c1cc2cnn(CCl)c2cc1[N+](=O)[O-]
inactive: [6] 103 % of control | [7] 111 % of control | [8] 109 % of control

Cc1ccc(/C=C/C(=O)c2ccc(Cl)cc2)cc1
inactive: dose: 100.0 mg/kg/injection, schedule: Q01DX009 (ip), vehicle: saline with Tween-80 108 % of control | dose: 100.0 mg/kg/injection, schedule: Q04DX003 (ip), vehicle: saline with Tween-80 93 % of control | dose: 200.0 mg/kg/injection, schedule: Q01DX009 (ip), vehicle: saline with Tween-80 94 % of control | dose: 200.0 mg/kg/injection, schedule: Q04DX003 (ip), vehicle: saline with Tween-80 101 % of control | dose: 400.0 mg/kg/injection, schedule: Q01DX009 (ip), vehicle: saline with Tween-80 97 % of control | dose: 400.0 mg/kg/injection, schedule: Q04DX003 (ip), vehicle: saline with Tween-80 91 % of control

CCO/C=C1\SC(=S)N(c2ccc(C(=O)O)cc2)C1=O
inactive: dose: 25.0 mg/kg/injection, schedule: Q01DX009 (ip), vehicle: saline with Tween-80 108 % of control | dose: 50.0 mg/kg/injection, schedule: Q01DX009 (ip), vehicle: saline with Tween-80 100 % of control | dose: 100.0 mg/kg/injection, schedule: Q01DX009 (ip), vehicle: saline sonified 97 % of control | dose: 100.0 mg/kg/injection, schedule: Q04DX003 (ip), vehicle: saline sonified 99 % of control | dose: 200.0 mg/kg/injection, schedule: Q04DX003 (ip), vehicle: saline sonified 102 % of control | dose: 400.0 mg/kg/injection, schedule: Q04DX003 (ip), vehicle: saline sonified 108 % of control

O=C(/C=C/C(=O)c1ccc(Cl)cc1)c1ccc(Cl)cc1
inactive: dose: 100.0 mg/kg/injection, schedule: Q01DX009 (ip), vehicle: gum acacia 95 % of control | dose: 100.0 mg/kg/injection, schedule: Q04DX003 (ip), vehicle: gum acacia 97 % of control | dose: 200.0 mg/kg/injection, schedule: Q01DX009 (ip), vehicle: gum acacia 95 % of control | dose: 200.0 mg/kg/injection, schedule: Q04DX003 (ip), vehicle: gum acacia 95 % of control | dose: 400.0 mg/kg/injection, schedule: Q01DX009 (ip), vehicle: gum acacia 101 % of control | dose: 400.0 mg/kg/injection, schedule: Q04DX003 (ip), vehicle: gum acacia 95 % of control

CCn1cc(C(=O)O)c(=O)c2cccc(Cl)c21
inactive: dose: 25.0 mg/kg/injection, schedule: Q04DX002 (ip), vehicle: saline 100 % of control | dose: 50.0 mg/kg/injection, schedule: Q04DX002 (ip), vehicle: saline 107 % of control | [9] 107 % of control | [10] 99 % of control | dose: 400.0 mg/kg/injection, schedule: Q04DX002 (ip), vehicle: saline 118 % of control

CC(=O)Nc1ccccc1F
inactive: dose: 100.0 mg/kg/injection, schedule: Q01DX009 (ip), vehicle: Klucel (hydroxypropylcellulose) (HPC) 105 % of control | dose: 100.0 mg/kg/injection, schedule: Q04DX003 (ip), vehicle: Klucel (hydroxypropylcellulose) (HPC) 101 % of control | dose: 200.0 mg/kg/injection, schedule: Q01DX009 (ip), vehicle: Klucel (hydroxypropylcellulose) (HPC) 105 % of control | dose: 200.0 mg/kg/injection, schedule: Q04DX003 (ip), vehicle: Klucel (hydroxypropylcellulose) (HPC) 102 % of control | dose: 400.0 mg/kg/injection, schedule: Q01DX009 (ip), vehicle: Klucel (hydroxypropylcellulose) (HPC) 103 % of control | dose: 400.0 mg/kg/injection, schedule: Q04DX003 (ip), vehicle: Klucel (hydroxypropylcellulose) (HPC) 95 % of control

CSc1cc(N)nc2nc[nH]c12
inactive: [6] 105 % of control | [7] 98 % of control | [8] 98 % of control

Nc1nccc(NC(c2ccccc2)c2ccccc2)c1N
inactive: dose: 12.5 mg/kg/injection, schedule: Q01DX001 (ip), vehicle: other 96 % of control | dose: 12.5 mg/kg/injection, schedule: Q01DX009 (ip), vehicle: DMSO 95 % of control | dose: 12.5 mg/kg/injection, schedule: Q04DX003 (ip), vehicle: other 96 % of control | dose: 25.0 mg/kg/injection, schedule: Q01DX001 (ip), vehicle: other 96 % of control | dose: 25.0 mg/kg/injection, schedule: Q04DX003 (ip), vehicle: other 96 % of control | dose: 50.0 mg/kg/injection, schedule: Q01DX001 (ip), vehicle: other 98 % of control | dose: 50.0 mg/kg/injection, schedule: Q04DX003 (ip), vehicle: other 89 % of control

O=[N+]([O-])/C=C/C(Cl)(Cl)Cl
inactive: dose: 6.25 mg/kg/injection, schedule: Q01DX009 (ip), vehicle: Klucel (hydroxypropylcellulose) (HPC) 101 % of control | dose: 12.5 mg/kg/injection, schedule: Q01DX009 (ip), vehicle: Klucel (hydroxypropylcellulose) (HPC) 108 % of control | dose: 25.0 mg/kg/injection, schedule: Q01DX009 (ip), vehicle: Klucel (hydroxypropylcellulose) (HPC) 97 % of control | dose: 50.0 mg/kg/injection, schedule: Q01DX009 (ip), vehicle: Klucel (hydroxypropylcellulose) (HPC) 95 % of control

OCc1cscc1-c1cscc1CO
inactive: [4] 97 % of control | [5] 111 % of control | dose: 400.0 mg/kg/injection, schedule: Q01DX001 (ip), vehicle: saline with Tween-80 93 % of control

O=S(=O)(Nc1ccccn1)c1ccc(N(CCCl)CCCl)cc1
inactive: [1] 95 % of control | [2] 103 % of control | [3] 106 % of control

O=C(Cc1ccccc1)NCCO
inactive: dose: 50.0 mg/kg/injection, schedule: Q01DX009 (ip), vehicle: saline 103 % of control | dose: 100.0 mg/kg/injection, schedule: Q01DX009 (ip), vehicle: saline 98 % of control | [9] 109 % of control | dose: 200.0 mg/kg/injection, schedule: Q01DX009 (ip), vehicle: saline 101 % of control | [10] 109 % of control | dose: 400.0 mg/kg/injection, schedule: Q01DX009 (ip), vehicle: saline 97 % of control

CC1=CC(C)(C)NC(=S)N1C
inactive: dose: 6.25 mg/kg/injection, schedule: Q04DX003 (ip), vehicle: saline with Tween-80 96 % of control | dose: 12.5 mg/kg/injection, schedule: Q04DX003 (ip), vehicle: saline with Tween-80 95 % of control | dose: 25.0 mg/kg/injection, schedule: Q04DX003 (ip), vehicle: saline with Tween-80 95 % of control | dose: 166.0 mg/kg/injection, schedule: Q01DX Z (ip), vehicle: methylcellulose (MC) 87 % of control
